From US8263636B2, “Dual alanyl aminopeptidase and dipeptidyl peptidase iv inhibitors for functionally influencing different cells and for treating immunological inflammatory, neuronal and other diseases” (IMTM GmbH, priority 2003, dated 2012)
Where two headings read alike, the source gives them in different places.

Legend:
[1] = molecular target: alanyl aminopeptidase (APN) (Homo sapiens, UniProt P15144); assay: Inhibition of alanyl aminopeptidase enzymatic activity, fluorogenic substrate (Ala)2-rhodamine; assay type: biochemical
Protocol: (§1) The inhibition characteristics measured are referred to as IC-50 values or ID50 values (the lafter marked with “*”) for both enzymes. The enzymatic activity was determined by means of the fluorogenic substrates/products (Ala-Pro)2-rhodamine and (Ala)2-rhodamine.

[2] = molecular target: dipeptidyl peptidase IV (DPIV) (Homo sapiens, UniProt P27487); assay: Inhibition of dipeptidyl peptidase IV enzymatic activity, fluorogenic substrate (Ala-Pro)2-rhodamine; assay type: biochemical
Protocol: as §1

[3] = system: dextran sulfate-induced colitis; assay: Dextran sulfate-induced colitis of mice; assay type: in vivo, female Balb/c mice; details: 10 μg single inhibitor i.p. on three successive days from day 5; day 7; insignificant; FIG. 2
[4] = system: ovalbumine-induced asthma bronchiale; assay: Ovalbumine-induced asthma bronchiale of mice; assay type: in vivo, female Balb/c mice; details: i.p. 0.1 mg of each inhibitor, days 28-35; ovalbumine challenge day 35; FIG. 3A
Protocol: Female Balb/c mice were sensitized for the antigen ovalbumine capable of inducing asthma bronchiale by an intreperitoneal administration of 10 μg ovalbumine on the days 0, 14 and 21. On day 27/28, the animals received a boostering dose of ovalbumine by inhalation [vD3]. After an intreperitoneal administration of the peptidase inhibitors on the days 28-35, there was effected an intranasal ovalbumine challenge on day 35, as well as a check of the allergic premature reaction via the pulmonal function. There were measured: the average expiratory flux (EF50), the tidal volume, the respiration rate and the minute volume as well as the number of eosinophilic granulocytes in the bronchoalveolar lavage. 8 to 10 animals were used per experimental group. By way of example, in FIG. 3A, there is summarized the effect of the peptidase inhibitors on the reduction of the EF50 value.

[5] = first value of cell DPIV/APN, unmarked = IC-50, read-out: IC50 DPIV
[6] = second value of cell DPIV/APN, unmarked = IC-50, read-out: IC50 APN
[7] = second value of cell DPIV/APN, marked * = ID50 value, read-out: ID50 APN (marked with *)
[8] = Table 8, first value of cell, unmarked = IC-50, read-out: IC50 DPIV

Sequence of alanyl aminopeptidase (APN) (P15144 whole entry, species assumed): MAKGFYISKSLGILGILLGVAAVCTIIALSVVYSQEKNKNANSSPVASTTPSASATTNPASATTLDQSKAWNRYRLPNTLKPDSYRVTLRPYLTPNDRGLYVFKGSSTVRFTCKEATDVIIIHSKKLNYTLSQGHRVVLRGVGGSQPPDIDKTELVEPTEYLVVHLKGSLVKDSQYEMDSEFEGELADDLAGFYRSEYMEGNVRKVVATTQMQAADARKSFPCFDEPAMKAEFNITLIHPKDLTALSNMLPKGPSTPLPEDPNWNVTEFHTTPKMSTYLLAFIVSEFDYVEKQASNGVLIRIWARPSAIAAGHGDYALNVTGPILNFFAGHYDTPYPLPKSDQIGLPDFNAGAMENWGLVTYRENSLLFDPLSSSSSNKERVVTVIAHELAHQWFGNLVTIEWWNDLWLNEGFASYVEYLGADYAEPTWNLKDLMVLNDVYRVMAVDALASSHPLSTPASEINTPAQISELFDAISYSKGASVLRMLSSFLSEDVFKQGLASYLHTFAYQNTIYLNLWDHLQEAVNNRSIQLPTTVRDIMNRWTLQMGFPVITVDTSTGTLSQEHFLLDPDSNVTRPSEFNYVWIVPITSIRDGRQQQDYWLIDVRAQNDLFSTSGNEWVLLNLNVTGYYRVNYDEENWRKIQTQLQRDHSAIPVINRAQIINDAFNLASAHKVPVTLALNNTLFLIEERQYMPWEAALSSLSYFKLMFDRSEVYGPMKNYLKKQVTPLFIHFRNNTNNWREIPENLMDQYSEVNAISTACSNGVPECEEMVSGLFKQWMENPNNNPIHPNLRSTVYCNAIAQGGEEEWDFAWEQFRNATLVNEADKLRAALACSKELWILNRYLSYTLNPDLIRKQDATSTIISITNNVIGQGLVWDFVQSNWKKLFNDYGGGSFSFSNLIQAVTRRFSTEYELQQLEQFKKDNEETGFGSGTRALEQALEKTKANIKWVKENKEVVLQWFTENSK
Sequence of dipeptidyl peptidase IV (DPIV) (P27487 whole entry, species assumed): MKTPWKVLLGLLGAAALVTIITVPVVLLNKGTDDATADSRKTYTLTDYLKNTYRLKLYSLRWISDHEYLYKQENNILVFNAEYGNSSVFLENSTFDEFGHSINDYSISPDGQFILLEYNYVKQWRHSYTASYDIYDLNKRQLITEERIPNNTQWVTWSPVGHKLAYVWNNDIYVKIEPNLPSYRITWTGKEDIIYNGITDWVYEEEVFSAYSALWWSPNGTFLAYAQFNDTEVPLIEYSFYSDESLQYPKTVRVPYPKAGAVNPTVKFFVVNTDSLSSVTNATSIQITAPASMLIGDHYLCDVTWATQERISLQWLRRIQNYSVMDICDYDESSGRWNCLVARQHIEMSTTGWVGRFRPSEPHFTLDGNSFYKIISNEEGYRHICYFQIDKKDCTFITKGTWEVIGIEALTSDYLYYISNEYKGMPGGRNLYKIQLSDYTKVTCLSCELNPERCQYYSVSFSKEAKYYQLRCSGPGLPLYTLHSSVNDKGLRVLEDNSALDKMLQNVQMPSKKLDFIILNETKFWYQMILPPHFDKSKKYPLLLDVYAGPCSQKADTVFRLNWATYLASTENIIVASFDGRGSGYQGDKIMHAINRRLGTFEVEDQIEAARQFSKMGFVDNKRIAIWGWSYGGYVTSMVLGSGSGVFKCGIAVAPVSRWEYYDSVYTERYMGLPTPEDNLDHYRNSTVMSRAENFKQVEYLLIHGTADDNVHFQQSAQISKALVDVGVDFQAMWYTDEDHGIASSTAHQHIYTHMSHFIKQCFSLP

SMILES	IC50 [2, 5] [µM]	IC50 [1, 6] [µM]	further results
CCOC(=O)C(NC(=O)c1ccc(OC)cc1)(N1CCOCC1)C(F)(F)F (centres unmarked) [Compound C8.017]	–	–	IC50 ([1]; Table 8, second value of cell, unmarked = IC-50, read-out: IC50 APN): 90.2 µM
CCOC(=O)N1CCN(C(c2cccs2)c2c(C)[nH]c3ccccc23)CC1 (centres unmarked) [Compound C4.015]	49	25	–
COc1cc(C)[n+](OC(=O)N(C)C)c(C)c1 [Compound C8.021]	–	–	IC50 [2]: 119 µM
Cc1[nH]c2ccccc2c1C(c1ccccn1)N1CCOCC1 (centres unmarked) [Compound C4.012]	59	36	–
COc1ccc(OCC(=O)N/N=C/c2cc(Br)c(O)c(O)c2Br)c(Br)c1 [Compound C2.005]	40.8	–	–
COc1ccc(C(=O)N/N=C/c2cc(O)c(O)c(Br)c2Br)cc1 [Compound C2.012]	–	–	IC50 [1, 7]: 33.6 µM
Cc1[nH]c2ccccc2c1C(c1ccccn1)N1CCN(c2ccc(F)cc2)CC1 (centres unmarked) [Compound C4.009]	96	76	–
COc1ccc(C(=O)N/N=C\c2cc(Br)c(O)c(O)c2Br)cc1 [Compound C2.013]	–	–	IC50 ([2]; first value of cell DPIV/APN, marked * = ID50 value, read-out: ID50 DPIV (marked with *)): 94 µM
Cc1[nH]c2ccccc2c1C(c1ccccn1)N1CCC(C(N)=O)CC1 (centres unmarked) [Compound C4.010]	54	42	–
CCOC(=O)C1CCN(C(c2ccccn2)c2c(C)[nH]c3ccccc23)CC1 (centres unmarked) [Compound C4.007]	32	32	–
Cc1[nH]c2ccccc2c1C(c1cccs1)N1CCC(C(N)=O)CC1 (centres unmarked) [Compound C4.014]	61	48	–
N[C@@H](CCCCNC(=O)OCc1ccc([N+](=O)[O-])cc1)C(=O)N1CCCC1 [Lys[Z(NO2)] pyrrolidide]	–	–	reduction of the heaviness of the disease (score) [3]: −12.3%; effect on the reduction of the average expiratory flux (EF50) [4]: showed a therapeutic effect
O=C(N/C(=C\c1ccco1)C(=O)N1CCCC(CO)C1)c1ccccc1 (centres unmarked) [Compound C8.020]	–	–	IC50 ([2]; Table 8, first value of cell, marked * = ID50 value, read-out: ID50 DPIV (marked with *)): 152 µM
COC(=O)C1=C(N)N2C(=O)CSC2=C(C(=O)OC(C)C)C1 [Compound C8.003]	–	–	IC50 [2, 8]: 10.8 µM
C=CCN1C(=O)C(C#N)=C(C)/C(=C\c2ccc(-c3cc(C)c(C)cc3[N+](=O)[O-])o2)C1=O [Compound C8.012]	–	–	IC50 [2, 8]: 65.4 µM
CCOC(=O)C(NC(=O)c1ccccc1)(N1CCOCC1)C(F)(F)F (centres unmarked) [Compound C7.004]	–	–	IC50 [1, 7]: 186 µM
Cc1[nH]c2ccccc2c1C(c1cc(Cl)ccc1O)N1CCOCC1 (centres unmarked) [Compound C4.002]	–	11.8	–
CN(C)CCNc1nc2c(c(=O)n(C)c(=O)n2C)n1Cc1ccccc1Cl [Compound C8.002]	–	–	IC50 APN ([1]; Table 8, second value of cell, unmarked = IC-50): 7.5/Inactive
Cc1[nH]c2ccccc2c1C(c1ccccn1)N1CCN(c2ccccn2)CC1 (centres unmarked) [Compound C4.008]	45	28	–
Cc1ccc(/C=N/NC(=O)c2cccc(I)c2)o1 [Compound C2.010]	–	–	IC50 ([2]; read-out: IC50 DPIV): 57.4 µM
Cc1ccc(C)n1-c1cccc(C(=O)N/N=C/c2cc(Br)c(O)c(Br)c2)c1 [Compound C2.007]	–	–	IC50 ([2]; read-out: IC50 DPIV): 41.1 µM
COc1ccc(C(c2c(C)[nH]c3ccccc23)N2CCCC2)cc1 (centres unmarked) [Compound C4.016]	49	30	–
Cc1[nH]c2ccccc2c1C(c1ccccn1)N1CCCCC1 (centres unmarked) [Compound C4.013]	74	78	–
CCCCC[C@H](CC(=O)NO)C(=O)N[C@H](C(=O)N1CCC[C@H]1CO)C(C)C [actinonine]	–	–	reduction of the heaviness of the disease (score) [3]: −16.5%; effect on the reduction of the average expiratory flux (EF50) [4]: showed a therapeutic effect
COc1cc(Br)c(OCC(=O)N/N=C/c2cc(Br)c(O)c(O)c2Br)c(Br)c1 [Compound C2.003]	–	–	IC50 [1, 7]: 5.4 µM
Cc1[nH]c2ccccc2c1C(c1ccccn1)N1CCCC1 (centres unmarked) [Compound C4.011]	170	–	–
O=C(N/N=C/c1cc(Br)cc(Br)c1OC(=O)c1ccccc1)/C(=C/c1ccc2c(c1)OCO2)NC(=O)c1ccccc1 [Compound C4.006]	38.6	–	–

More lines, main results first:

IC50 [2, 5] [µM]	IC50 [1, 6] [µM]	SMILES	further results
67	31	Cc1[nH]c2ccccc2c1C(c1cccs1)N1CCCCC1 (centres unmarked) [Compound C4.017]	–
10.8	–	COC(=O)C1=C(N)N2C(=O)CSC2=C(C(=O)OC(C)C)C1 [Compound C10.003]	–
115	–	COC(=O)C1=c2s/c(=C\c3ccc(C)cc3)c(=O)n2C(N)=C(S(=O)(=O)c2ccccc2)C1c1ccc(C)cc1 (centres unmarked) [Compound C16.011]	–
61	32	Cc1[nH]c2ccccc2c1C(c1cccs1)N1CCOCC1 (centres unmarked) [Compound C4.018]	–
99.4	26.7	COc1ccccc1N1C(=O)c2ccc(Oc3ccc(NC(=O)CCS(=O)(=O)c4ccc(C)cc4)cc3)cc2C1=O [Compound C10.015]	–
10.8	6.9	COC(=O)C1=C(N)N2C(=O)CSC2=C(C(=O)OC(C)C)C1 [Compound C16.001]	–
152	–	O=C(N/C(=C\c1ccco1)C(=O)N1CCCC(CO)C1)c1ccccc1 (centres unmarked) [Compound C9.006]	–
20.6	14.8	COc1ccc(N2C(=O)c3ccc(Oc4ccc(N5C(=O)c6ccc(C(=O)O)cc6C5=O)cc4)cc3C2=O)cc1 [Compound C12.001]	–
–	100	COC(=O)C1=c2s/c(=C\c3ccco3)c(=O)n2C(N)=C(S(=O)(=O)c2ccccc2)C1c1ccco1 (centres unmarked) [Compound C16.010]	–
18.9	21.7	CCOC(=O)C(NC(=O)c1cccc(Cl)c1)(Nc1ccccc1OC)C(F)(F)F (centres unmarked) [Compound C7.001]	–
–	90.2	CCOC(=O)C(NC(=O)c1ccc(OC)cc1)(N1CCOCC1)C(F)(F)F (centres unmarked) [Compound C7.003]	–
57	35	Cc1[nH]c2ccccc2c1C(c1cccs1)N1CCCC1 (centres unmarked) [Compound C4.019]	–
25.4	–	CCOC(=O)C(NC(=O)c1ccc(OC)cc1)(N1CCCC1=O)C(F)(F)F (centres unmarked) [Compound C7.002]	–
79	75	CC(C)OC(=O)C1=C(N)N2C(=O)CSC2=C(C(=O)OC(C)C)C1 [Compound C16.007]	–
139	–	CCOC(=O)C1=c2s/c(=C\c3cccs3)c(=O)n2C(N)=C(S(=O)(=O)c2ccccc2)C1c1cccs1 (centres unmarked) [Compound C16.008]	–
140	–	COC(=O)C1=c2s/c(=C\c3cccc(OC)c3)c(=O)n2C(N)=C(S(=O)(=O)c2ccccc2)C1c1cccc(OC)c1 (centres unmarked) [Compound C16.009]	–
